US10106526B2, “Inhibitors of cyclin-dependent kinase 7 (CDK7)” (SYROS PHARMACEUTICALS, INC., priority 2014, dated 2018)
Structures can show the parent of a compound that is named as a salt.

Key:
CDK7 = target: T1, CDK7 (Homo sapiens, UniProt P50613); test: CDK7 kinase activity, Adapta kinase assay (Life Technologies); type: biochemical; settings: Adapta kinase assay at Life Technologies; 10 μM down to 0.514 nM, 3-fold serial dilutions; read-out: CDK7 Inhibition (IC50)
T1 construct: purchased Life Technologies (Adapta kinase assay service)
Description: Compounds of the invention were assayed for CDK7 activity at Life Technologies™ (Grand Island, N.Y.) using their commercially available Adapta® kinase assay services. Compounds were tested at concentrations ranging from 10 μM down to 0.514 nM in a series of 3-fold serial dilutions. Details of these assays, including substrates used, are available on the Life Technologies web site (http://www.lifetechnologies.com/us/en/home/life-science/drug-discovery/target-and-lead-identification-and-validation/kinasebiology/kinase-activity-assays.html).

A673 cells = test: Inhibition of proliferation of A673 cells (CyQUANT, 72 hour); type: cell-based, human; settings: 72 hour proliferation
Description: A673 cells are a cell line derived from human muscle Ewing's sarcoma. Representative compounds of the invention were tested at different concentrations (from 4 μM to 126.4 pM; 0.5 log serial dilutions) for their ability to inhibit the proliferation of A673 cells. Known CDK inhibitors flavopiridol and triptolide were used as positive controls. Cells were grown in Dulbecco's Modified Eagle's Medium, +10% FBS+1 mM Sodium Pyruvate. The cells were cultured at 37° C. in a humidified chamber in the presence of 5% CO2. Proliferation assays were conducted over a 72 hour time period. CyQUANT® (Life Technologies, Chicago, Ill. USA) was used to assess the anti-proliferative effects of the compounds following manufacturer's directions and utilizing the reagents supplied with the CyQUANT® kit. In this table, “A” represents an IC50 of less than 500 nM; “B” an IC50 of between 500 nM and 5 μM; and “C” an IC50 of greater than 5 μM.

Jurkat cells = test: Inhibition of proliferation of Jurkat cells (CellTiter-Glo, 72 hour); type: cell-based, human; settings: 10 μM to 316 pM
Description: Jurkat cells are a cell line established from a human T cell leukemia. Representative compounds of the invention were tested at different concentrations (from 10 μM to 316 pM; 0.5 log serial dilutions) for their ability to inhibit the proliferation of Jurkat cells. Known CDK inhibitors flavopiridol and triptolide were used as positive controls. Cells were grown in RPMI 1640+10% FBS+1% Glutamax. The cells were supplemented with FBS (Life Technologies) and 100 U·mL^− penicillin, 100 μg·mL^− streptomycin (Invitrogen) and cultured at 37° C. in a humidified chamber in the presence of 5% CO2. Proliferation assays were conducted over a 72 hour time period. CellTiter-Glo® (Promega Corporation, Madison, Wis. USA) was used to assess the anti-proliferative effects of the compounds following manufacturer's directions and utilizing the reagents supplied with the CellTiter-Glo® kit. In this table, “A” represents an IC50 of less than 500 nM; “B” an IC50 of between 500 nM and 5 μM; and “C” an IC50 of greater than 5 μM.

T1 sequence (P50613 whole entry): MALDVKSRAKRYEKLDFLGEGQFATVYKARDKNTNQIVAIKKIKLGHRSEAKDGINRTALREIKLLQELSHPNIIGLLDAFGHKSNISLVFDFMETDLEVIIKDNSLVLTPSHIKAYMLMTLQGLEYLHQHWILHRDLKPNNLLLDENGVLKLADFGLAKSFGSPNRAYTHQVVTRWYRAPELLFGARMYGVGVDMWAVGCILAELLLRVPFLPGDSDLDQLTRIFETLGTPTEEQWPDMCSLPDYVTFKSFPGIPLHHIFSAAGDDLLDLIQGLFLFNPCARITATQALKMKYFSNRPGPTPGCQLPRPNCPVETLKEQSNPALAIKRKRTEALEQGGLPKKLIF
T1 sequence (P51946 whole entry partner): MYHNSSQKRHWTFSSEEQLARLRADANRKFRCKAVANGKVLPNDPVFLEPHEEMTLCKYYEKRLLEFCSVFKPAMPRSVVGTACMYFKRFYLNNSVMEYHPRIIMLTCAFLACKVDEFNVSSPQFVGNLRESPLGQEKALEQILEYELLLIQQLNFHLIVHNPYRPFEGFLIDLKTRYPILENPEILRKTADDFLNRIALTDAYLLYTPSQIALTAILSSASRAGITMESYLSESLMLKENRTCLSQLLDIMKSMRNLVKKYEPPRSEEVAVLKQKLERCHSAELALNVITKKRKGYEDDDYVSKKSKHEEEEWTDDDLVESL
T1 sequence (P51948 whole entry partner): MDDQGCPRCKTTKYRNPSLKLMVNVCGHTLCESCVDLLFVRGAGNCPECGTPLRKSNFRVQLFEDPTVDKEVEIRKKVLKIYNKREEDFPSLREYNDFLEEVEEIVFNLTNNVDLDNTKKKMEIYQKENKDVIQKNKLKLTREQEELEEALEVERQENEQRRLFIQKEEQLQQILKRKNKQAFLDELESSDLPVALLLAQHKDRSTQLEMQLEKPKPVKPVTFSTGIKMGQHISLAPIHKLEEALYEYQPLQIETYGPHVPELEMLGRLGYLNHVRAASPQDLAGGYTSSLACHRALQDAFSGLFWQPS

SMILES | IC50 (CDK7) | IC50 (A673 cells; Homo sapiens) | IC50 (Jurkat cells; Homo sapiens) | IC50 (A673 cells) | IC50 (Jurkat cells)
C=CC(=O)N1CCCC(CNC2CCC(Nc3ncc(Cl)c(-c4c[nH]c5ccccc45)n3)CC2)C1 (centres unmarked) [Compound 190, 1-[3-[[[4-[[5-chloro-4-(1H-indol-3-yl)pyrimidin-2-yl]amino]cyclohexyl]amino]methyl]-1-piperidyl]prop-2-en-1-One] | < 100 nM | < 500 nM | 500 to 5000 nM |  | 
C=CC(=O)N1CCC(CNC2CCC(Nc3ncc(Cl)c(-c4c[nH]c5ccccc45)n3)CC2)CC1 (centres unmarked) [compound 163] | < 100 nM |  |  | < 500 nM | < 500 nM
C=CC(=O)N1CCC(CN(C)[C@H]2CCC[C@@H](Nc3ncc(Cl)c(-c4c[nH]c5ccccc45)n3)C2)CC1 [Compound 167] | < 100 nM | < 500 nM | < 500 nM |  | 
C=CC(=O)N1CCN(CC2(O)CCC[C@@H](Nc3ncc(Cl)c(-c4c[nH]c5ccccc45)n3)C2)CC1 (single isomer, unassigned) [Compound 187] | < 100 nM | < 500 nM | < 500 nM |  | 
C=CC(=O)N1CCN([C@@H]2CCC[C@@H](Nc3ncc(Cl)c(-c4c[nH]c5ccccc45)n3)C2)CC1 [Compound 180] | 100 to 1000 nM |  |  | < 500 nM | < 500 nM
C=CC(=O)N1CCC(NC(=O)N2CCC[C@@H](Nc3ncc(Cl)c(-c4c[nH]c5ccccc45)n3)C2)CC1 [Compound 205] | 100 to 1000 nM |  |  | < 500 nM | 500 to 5000 nM
CN(C)C/C=C/C(=O)Nc1cnn(CC2(O)CCC(Nc3ncc(Cl)c(-c4c[nH]c5ccccc45)n3)CC2)c1 (centres unmarked) [Compound 114, (E)-N-(1-((4-(5-chloro-4-(1H-indol-3-yl)pyrimidin-2-ylamino)-1-hydroxycyclohexyl)methyl)-1H-pyrazol-4-yl)-4-(dimethylamino)but-2-enamide] | < 100 nM | > 5000 nM | > 5000 nM |  | 
O=C(N[C@@H]1CCC[C@H](Nc2ncc(Cl)c(-c3c[nH]c4ccccc34)n2)C1)C1CCN(C(=O)/C=C/CN2CCOCC2)CC1 [Compound 202-2, N-((1R,3S)-3-((5-chloro-4-(1H-indol-3-yl)pyrimidin-2-yl)amino)cyclohexyl)-1-((E)-4-morpholinobut-2-enoyl)piperidine-4-carboxamide] | < 100 nM |  | < 500 nM |  | 
CN(C)CC=CC(=O)N1CCC(CNC2CCC(Nc3ncc(Cl)c(-c4c[nH]c5ccccc45)n3)CC2)CC1 (centres unmarked) [compound 196] | < 100 nM |  |  |  | 500 to 5000 nM
C=CC(=O)N[C@@H]1CN[C@H](C(=O)N[C@H]2CCC[C@@H](Nc3ncc(Cl)c(-c4c[nH]c5ccccc45)n3)C2)C1 [Compound 153, (2S,4S)-4-acrylamido-N-((1S,3R)-3-(5-chloro-4-(1H-indol-3-yl)pyrimidin-2-ylamino)cyclohexyl)pyrrolidine-2-carboxamide] | < 100 nM | < 500 nM | < 500 nM |  | 
C=CC(=O)NC12CC(C(=O)N[C@H]3CCC[C@@H](Nc4ncc(Cl)c(-c5c[nH]c6ccccc56)n4)C3)(C1)C2 (racemic) [Compound 109, N-[(±)-3-{[5-chloro-4-(1H-indol-3-yl)pyrimidin-2-yl]amino}cyclohexyl]-3-(prop-2-enamido)bicyclo[1.1.1]pentane-1-carboxamide] | > 1000 nM | < 500 nM | < 500 nM |  | 
Nc1ccc(C(=O)N[C@H]2CCC[C@@H](Nc3ncc(Cl)c(-c4c[nH]c5ccccc45)n3)C2)nc1 [Compound 1007, 5-amino-N-((1S,3R)-3-(5-chloro-4-(1H-indol-3-yl)pyrimidin-2-ylamino)cyclohexyl)picolinamide] | < 100 nM |  | 500 to 5000 nM |  | 
C=CC(=O)N[C@H]1CCC[C@@H](Nc2ncc(Cl)c(-c3c[nH]c4ccccc34)n2)C1 [Compound 170, N-((1S,3R)-3-(5-chloro-4-(1H-indol-3-yl)pyrimidin-2-ylamino)cyclohexyl)acrylamide] | < 100 nM |  | 500 to 5000 nM |  | 
NCCCCC(=O)N1CC[C@@H](Nc2ncc(Cl)c(-c3c[nH]c4ccccc34)n2)C1 [Compound 1000, 5-((R)-3-(5-chloro-4-(1H-indol-3-yl)pyrimidin-2-ylamino)pyrrolidin-1-yl)-5-oxopentan-1-aminium chloride] | < 100 nM |  | 500 to 5000 nM |  | 
O=C(/C=C/CN1CCOCC1)N1CCC(C(=O)N2CC[C@H](Nc3ncc(Cl)c(-c4c[nH]c5ccccc45)n3)C2)CC1 [Compound 211, (S,E)-1-(4-(3-((5-chloro-4-(1H-indol-3-yl)pyrimidin-2-yl)amino)pyrrolidine-1-carbonyl)piperidin-1-yl)-4-morpholinobut-2-en-1-One] | 100 to 1000 nM | < 500 nM | > 5000 nM |  | 
C=CC(=O)N1CCC(C(=O)N2CC[C@H](Nc3ncc(Cl)c(-c4c[nH]c5ccccc45)n3)C2)CC1 [Compound 210, (S)-1-(4-(3-((5-chloro-4-(1H-indol-3-yl)pyrimidin-2-yl)amino)pyrrolidine-1-carbonyl)piperidin-1-yl)prop-2-en-1-One] | 100 to 1000 nM |  | 500 to 5000 nM |  | 
O=C(Nc1cccc(Nc2ncc(Cl)c(-c3c[nH]c4ccccc34)n2)c1)C1CCNCC1 [Compound 1006, N-(3-(5-chloro-4-(1H-indol-3-yl)pyrimidin-2-ylamino)phenyl)piperidine-4-carboxamide] | < 100 nM |  | 500 to 5000 nM |  | 
C=CC(=O)N1CCCC(CN[C@H]2CC[C@@H](Nc3ncc(Cl)c(-c4c[nH]c5ccccc45)n3)CC2)C1 (single isomer, unassigned) [compound 195] | 100 to 1000 nM |  |  |  | < 500 nM
CN(C)C/C=C/C(=O)Nc1ccc(C(=O)Nc2cccc(Nc3ncc(Cl)c(-c4c[nH]c5ccccc45)n3)c2)nc1 [Compound 107, (E)-N-(3-(5-chloro-4-(1H-indol-3-yl)pyrimidin-2-ylamino)phenyl)-5-(4-(dimethylamino)but-2-enamido)picolinamide] | < 100 nM |  | 500 to 5000 nM |  | 
C=CC(=O)NCCC(=O)N[C@H]1CCC[C@@H](Nc2ncc(Cl)c(-c3c[nH]c4ccccc34)n2)C1 [Compound 172, N-(3-((1S,3R)-3-(5-chloro-4-(1H-indol-3-yl)pyrimidin-2-ylamino)cyclohexylamino)-3-oxopropyl)acrylamide] | < 100 nM |  | < 500 nM |  | 
C=CC(=O)N1CCC(O)(CN(C)[C@H]2CCC[C@@H](Nc3ncc(Cl)c(-c4c[nH]c5ccccc45)n3)C2)CC1 [Compound 225] | 100 to 1000 nM |  |  |  | > 5000 nM
CN(C)C/C=C/C(=O)N1CCC[C@@H](C(=O)Nc2cccc(Nc3ncc(Cl)c(-c4c[nH]c5ccccc45)n3)c2)C1 [Compound 103, (3R,E)-N-(3-(5-chloro-4-(1H-indol-3-yl)pyrimidin-2-ylamino)phenyl)-1-(4-(dimethylamino)but-2-enoyl)piperidine-3-carboxamide] | < 100 nM |  | 500 to 5000 nM |  | 
O=C(Nc1cccc(Nc2ncc(Cl)c(-c3c[nH]c4ccccc34)n2)c1)[C@@H]1CCCNC1 [Compound 1004, (3R)—N-(3-(5-chloro-4-(1H-indol-3-yl)pyrimidin-2-ylamino)phenyl)piperidine-3-carboxamide] | < 100 nM |  | 500 to 5000 nM |  | 
O=C(Nc1cccc(Nc2ncc(Cl)c(-c3c[nH]c4ccccc34)n2)c1)[C@H]1CCCNC1 [Compound 1005, (3S)—N-(3-(5-chloro-4-(1H-indol-3-yl)pyrimidin-2-ylamino)phenyl)piperidine-3-carboxamide] | < 100 nM |  | 500 to 5000 nM |  | 
C=CC(=O)N1CCC(C(=O)N2CC[C@@H](Nc3ncc(Cl)c(-c4c[nH]c5ccccc45)n3)C2)CC1 [Compound 214, 1-[4-[(3R)-3-[[5-chloro-4-(1H-indol-3-yl)pyrimidin-2-yl]amino]pyrrolidine-1-carbonyl]-1-piperidyl]prop-2-en-1-One] | 100 to 1000 nM | < 500 nM | > 5000 nM |  | 
N[C@H]1CC[C@H](C(=O)Nc2cccc(Nc3ncc(Cl)c(-c4c[nH]c5ccccc45)n3)c2)CC1 [Compound 1002, trans-4-amino-N-(3-(5-chloro-4-(1H-indol-3-yl)pyrimidin-2-ylamino)phenyl) cyclohexanecarboxamide.HCl] | < 100 nM |  | 500 to 5000 nM |  | 
CN(C)C/C=C/C(=O)N1CCC(C(=O)Nc2cccc(Nc3ncc(Cl)c(-c4c[nH]c5ccccc45)n3)c2)CC1 [Compound 105, (E)-N-(3-(5-chloro-4-(1H-indol-3-yl)pyrimidin-2-ylamino)phenyl)-1-(4-(dimethylamino)but-2-enoyl)piperidine-4-carboxamide] | < 100 nM |  | 500 to 5000 nM |  | 
